Results reported in patent publication US20230140972A1, “GLYCEROL GLUCOSIDE-BASED COMPOUND AND COMPOSITION COMPRISING SAME FOR ULTRAVIOLET LIGHT SHIELD OR ANTI-INFLAMMATION” (ATHENA CO., LTD., priority 2020, published 2023).
Values joined by “and” are separate entries in the source; they are usually repeats but may differ in a detail not shown here. Equal values may be shown once.

Legend:
[1] = tested on: total NO production in LPS-treated RAW264.7 cells; assay: Nitric oxide (total NO) production and inhibition, enzymatic method; assay type: cell-based, mouse; conditions: LPS 1 μg/mL
Method: An NO assay was performed to evaluate an amount of nitric oxide (total NO) production and a production inhibition rate of the glycerol glucoside-based compound sample (EPS-S).
Specifically, subcultured RAW264.7 cells were aliquoted into a 96-well plate at 1×10^5 cells/well, and cultured at 37° C. in an incubator containing 5% carbon dioxide for 24 hours, and then a culture media was replaced with a serum-free media. Then, each sample is diluted by concentration and treated onto the cells with LPS (final 1 μg/mL). After culturing for 24 hours, a cell culture medium was treated with nitrate reductase, enzyme cofactor and enhancer to react. A Griess reagent was added and an absorbance was measured at 540 nm with a microplate reader. A total NO production was obtained by substituting the absorbance into a standard nitric oxide calibration curve, and a total NO production inhibition rate (%) was analyzed through Equation 2 and expressed as a mean±standard deviation. Dexamethasone was used as a positive control group.

[2] = tested on: PGE2 production in RAW264.7 cells; assay: PGE2 production inhibition using ELISA assay; assay type: cell-based, mouse; conditions: LPS 10 ng/mL
Method: A PGE2 production inhibition ability of the sample in RAW264.7 cells was evaluated using a PGE2 ELISA assay.
Specifically, subcultured RAW264.7 cells were aliquoted into a 6-well dish at 1.5×10^6 cells/well and cultured for 24 hours at 37° C. in an incubator containing 5% carbon dioxide, and then a culture media was replaced with a serum-free media. Then, each sample was diluted by concentration and treated onto the cells with LPS (final 10 ng/mL). After culturing for 24 hours, the cell culture medium was recovered and a PGE2 ELISA assay was performed.
100 μL of each of a standard solution and a cell culture solution were put into each well, and then 50 μL of PGE2 conjugate and 50 μL of PGE2 antibody were sequentially added and reacted at room temperature for 2 hours. Then, the reaction solution was removed from each well, washing is performed with a wash buffer, 200 μL of a substrate solution was then added, and reacted at room temperature for 45 minutes. Then, 50 μL of a stop solution was added and an absorbance was measured at 405 and 570 nm. Dexamethasone was used as a positive control group. After the test was conducted once, an amount of PGE2 production was calculated by substituting the absorbance value into a PGE2 standard solution calibration curve, and the PGE2 production inhibition rate (%) was calculated using Equation 5 below and expressed as the mean±standard deviation.

[3] = tested on: NO2 production in LPS-treated RAW264.7 cells; assay: Nitric oxide (NO2) production amount and inhibition, non-enzymatic method; assay type: cell-based, mouse; conditions: LPS 1 μg/mL, 24 h
Method: An NO assay was performed to evaluate an amount of nitric oxide (NO2) production and a production inhibition ability of the glycerol glucoside-based compound sample (EPS-S).
Specifically, subcultured RAW264.7 cells were aliquoted into a 96-well plate at 1×10^5 cells/well, and cultured at 37° C. in an incubator containing 5% carbon dioxide for 24 hours, and then a culture media was replaced with a serum-free media. […] Dexamethasone was used as a positive control group.

[4] = tested on: NO production in LPS-treated RAW264.7 cells; assay: Nitric oxide (NO) production inhibition, non-enzymatic method (Griess); assay type: cell-based; conditions: Mus musculus, LPS 1 μg/mL, read-out: NO production inhibition rate
Method: An NO assay was performed to evaluate the nitric oxide (NO) production inhibition ability of the glycerol glucoside-based compound sample (EPS-S).
Specifically, subcultured RAW264.7 cells were aliquoted in a 96-well plate at 1×10^5 cells/well, and cultured for 24 hours at 37° C. in an incubator containing 5% carbon dioxide, and then, a culture media was replaced with a serum-free media. Then, each sample was diluted by concentration, treated onto the cell with LPS (final 1 μg/mL), and after culturing for 24 hours, the cell culture medium and a Griess reagent were reacted, and an absorbance was then measured at 540 nm with a microplate reader. Dexamethasone was used as a positive control group. After the test was conducted once, each absorbance value was substituted into Equation 2 below to obtain the NO production inhibition rate (%), and it was expressed as the mean±standard deviation.

[5] = tested on: COX-2 mRNA in RAW264.7 cells; assay: COX-2 mRNA expression analysis (RT-qPCR); assay type: cell-based, mouse; conditions: LPS 100 ng/mL
Method: An RT-qPCR was performed to evaluate an mRNA expression inhibition ability of COX-2 and iNOS of the glycerol glucoside-based compound sample (EPS-S).
Specifically, subcultured RAW264.7 cells were aliquoted into a 60 mm dish at 1.5×10^6 cells, and cultured at 37° C. in an incubator containing 5% carbon dioxide for 24 hours, and then a culture media was replaced with a serum-free media. Then, each sample was diluted by concentration and treated onto the cells with LPS (final 100 ng/mL). After culturing for 24 hours, cells were recovered, RNA was extracted, and cDNA was synthesized. For cDNA, qPCR was performed after mixing Real-time PCR Master Mix with TaqMan probes of each of COX-2 and iNOS. Dexamethasone was used as a positive control group. The test was conducted once, and the mRNA expression inhibition rate was obtained by analyzing the result by the ΔΔCt method, and then substituted into Equation 6 below to obtain the mRNA expression inhibition rate of COX-2 and iNOS of the treated sample group compared to the negative control group.

[6] = 24 h, 20 μM, listed as dexamethasone
[7] = 24 h, 80 μM, listed as dexamethasone

## C[C@@H]1C[C@H]2[C@@H]3CCC4=CC(=O)C=C[C@]4(C)[C@@]3(F)[C@@H](O)C[C@]2(C)[C@@]1(O)C(=O)CO [Dexamethasone]
[1]; 24 h, 10 μM
  Total NO production: 41.15 ± 0.43 µM
[1]; 24 h, 10 μM, listed as dexamethasone
  Total NO production: 41.15 µM
[1]; 24 h, 20 μM
  Total NO production: 38.84 ± 1.24 µM
[1]; [6]
  Total NO production: 38.84 µM
[1]; 24 h, 80 μM
  Total NO production: 37.82 ± 0.75 µM
[1]; [7]
  Total NO production: 37.82 µM
[1]; Mus musculus, RAW264.7, 24 h, 10 μM, read-out: Total NO production inhibition rate
  inhibition at 10 µM: 42.8%
[1]; Mus musculus, RAW264.7, 24 h, 20 μM, read-out: Total NO production inhibition rate
  inhibition at 20 µM: 48.7%
[1]; Mus musculus, RAW264.7, 24 h, 80 μM, read-out: Total NO production inhibition rate
  inhibition at 80 µM: 51.4%
[2]; 24 h, 10 Mm (10 μM)
  PGE2 production inhibitory ability: 83.55%
[2]; Mus musculus, RAW264.7, 24 h, 1 μM, read-out: PGE2 production inhibitory ability
  inhibition at 1 µM: 62.3%
[2]; Mus musculus, RAW264.7, 24 h, 5 μM, read-out: PGE2 production inhibitory ability
  inhibition at 5 µM: 81.4%
[2]; Mus musculus, RAW264.7, 24 h, 20 μM, read-out: PGE2 production inhibitory ability
  inhibition at 20 µM: 86.4%
[2]; Mus musculus, RAW264.7, 24 h, 80 μM, read-out: PGE2 production inhibitory ability
  inhibition at 80 µM: 96.4%
[3]; 10 μM
  NO2 production amount: 21.29 ± 0.59 µM
[3]; 10 μM, listed as dexamethasone
  NO2 production amount: 21.29 µM
[3]; 20 μM
  NO2 production amount: 20.79 ± 0.12 µM
[3]; 20 μM, listed as dexamethasone
  NO2 production amount: 20.79 µM
[3]; 80 μM
  NO2 production amount: 19.62 ± 0.50 µM
[3]; 80 μM, listed as dexamethasone
  NO2 production amount: 19.62 µM
[3]; Mus musculus, RAW264.7, 10 μM, read-out: NO2 production inhibition rate
  inhibition at 10 µM: 21.5%
[3]; Mus musculus, RAW264.7, 20 μM, read-out: NO2 production inhibition rate
  inhibition at 20 µM: 24.7%
[3]; Mus musculus, RAW264.7, 80 μM, read-out: NO2 production inhibition rate
  inhibition at 80 µM: 32.3%
[4]; 24 h, 10 μM
  inhibition at 10 µM: 15.6%
[4]; 24 h, 20 μM
  inhibition at 20 µM: 18%
[4]; 24 h, 40 μM
  inhibition at 40 µM: 27.6%
[4]; 24 h, 80 μM
  inhibition at 80 µM: 33.8%
[5]; 24 h, 1 μM
  COX-2 mRNA expression inhibition rate: 22.64 ± 1.27%
[5]; 24 h, 1 μM, listed as dexamethasone
  COX-2 mRNA expression inhibition rate: 22.64%
[5]; 24 h, 5 μM
  COX-2 mRNA expression inhibition rate: 71.72 ± 0.69%
[5]; 24 h, 5 μM, listed as dexamethasone
  COX-2 mRNA expression inhibition rate: 71.72%
[5]; 24 h, 20 μM
  COX-2 mRNA expression inhibition rate: 81.78 ± 0.60%
[5]; [6]
  COX-2 mRNA expression inhibition rate: 81.78%
[5]; 24 h, 80 μM
  COX-2 mRNA expression inhibition rate: 84.23 ± 0.41%
[5]; [7]
  COX-2 mRNA expression inhibition rate: 84.23%
[5]; 24 h, 10 Mm (table head; text 10 μM)
  COX-2 mRNA expression inhibition rate: 76.82 ± 1.73%
[5]; 24 h, 10 Mm (table head; text 10 μM), listed as dexamethasone
  COX-2 mRNA expression inhibition rate: 76.82%

## COCC(COC)OC1OC(CO)C(O)C(O)C1O (stereo not drawn) [EPS-S]
[1]; 24 h, 100 ppm
  Total NO production: 62.07 µM and 62.07 ± 0.48 µM
  Total NO production inhibition rate: −3.85 ± 2.22%
[1]; 24 h, 500 ppm
  Total NO production: 59.20 µM and 59.20 ± 0.86 µM
[1]; 24 h, 1000 ppm
  Total NO production: 53.38 µM and 53.38 ± 0.18 µM
[1]; Mus musculus, RAW264.7, 24 h, 10 ppm, read-out: Total NO production inhibition rate
  inhibition at 10 ppm: -11.3 ± 1.24%
[1]; Mus musculus, RAW264.7, 24 h, 500 ppm (text b176), read-out: Total NO production inhibition rate
  inhibition at 500 ppm: -3.84%
[1]; Mus musculus, RAW264.7, 24 h, 1000 ppm, read-out: Total NO production inhibition rate
  inhibition at 1000 ppm: 11.2%
[2]; Mus musculus, RAW264.7, 24 h, 10 ppm, read-out: PGE2 production inhibitory ability
  inhibition at 10 ppm: 28.3%
[2]; Mus musculus, RAW264.7, 24 h, 100 ppm, read-out: PGE2 production inhibitory ability
  inhibition at 100 ppm: 36.5%
[2]; Mus musculus, RAW264.7, 24 h, 500 ppm, read-out: PGE2 production inhibitory ability
  inhibition at 500 ppm: 47.2%
[2]; Mus musculus, RAW264.7, 24 h, 1,000 ppm, read-out: PGE2 production inhibitory ability
  inhibition at 1000 ppm: 94.1%
[3]; 10 ppm
  NO2 production amount: 23.14 ± 0.25 µM
[3]; 100 ppm
  NO2 production amount: 23.14 µM and 22.57 ± 0.16 µM
[3]; 500 ppm (text b168)
  NO2 production amount: 22.57 µM
[3]; 1000 ppm
  NO2 production amount: 20.90 µM and 20.90 ± 0.50 µM
[3]; Mus musculus, RAW264.7, 100 ppm, read-out: NO2 production inhibition rate
  inhibition at 100 ppm: 9.47%
[3]; Mus musculus, RAW264.7, 500 ppm, read-out: NO2 production inhibition rate
  inhibition at 500 ppm: 13.2%
[3]; Mus musculus, RAW264.7, 1000 ppm, read-out: NO2 production inhibition rate
  inhibition at 1000 ppm: 24%
[4]; 24 h, 1 ppm
  inhibition at 1 ppm: -5.66%
[4]; 24 h, 10 ppm
  inhibition at 10 ppm: 6.1%
[4]; 24 h, 100 ppm
  inhibition at 100 ppm: 14.2%
[4]; 24 h, 1,000 ppm
  inhibition at 1000 ppm: 30.3%
[5]; 24 h, 10 ppm
  COX-2 mRNA expression inhibition rate: −9.09% and −9.09 ± 3.16%
[5]; 24 h, 100 ppm
  COX-2 mRNA expression inhibition rate: 74.44% and 74.44 ± 0.91%
[5]; 24 h, 500 ppm
  COX-2 mRNA expression inhibition rate: 76.43% and 76.43 ± 1.11%
[5]; 24 h, 1,000 ppm
  COX-2 mRNA expression inhibition rate: 83.19% and 83.19 ± 1.30%
